Test results: US8865750B2, “Small molecule inhibitors of RGS proteins” (The Regents of The University of Michigan, priority 2011, dated 2014)

What was measured:
[1] = biological target: RGS19 (Homo sapiens (Human), UniProt P49795); experiment: FCPIA: Gαo binding to RGS19; conditions: Table 7
Method: FCPIA Dose Response and Reversibility Experiments:
FCPIA was performed as previously described using chemically biotinylated RGS proteins and AlexaFluor-532 labeled Gα0. (Roman et al., J Biomol Screen, 2009; Blazer, L. L., et al., Mol Pharmacol).
RGS/Gα binding studies: The binding of biotinylated RGS proteins to fluorescently labeled Gαo was measured by Flow Cytometry Protein Interaction Assay (FCPIA) method previously described (Roman et al., (2009) J Biomol Screen.; Blazer et al., (2010) Curr Protoc Cytom Chapter 13, Unit 13 11 11-15; Roman et al., (2007) Mol Pharmacol 71, 169-175) as were the measures of compound reversibility.

[2] = biological target: RGS4 (Homo sapiens (Human), UniProt P49798); experiment: Steady-state GAP assay (malachite green); assay type: biochemical
Method: Steady-state GAP Assay: Steady-state hydrolysis of unlabled GTP was measured using malachite green in a receptor-independent assay utilizing a mutant Gαi1 (R178M, A326S) (Zielinski et al., (2009) J Biomol Screen 14, 1195-1206). These mutations facilitate the release of GDP from the enzyme making the GTP hydrolysis step rate-limiting (Lielinski et al., supra). […] The reaction is allowed to proceed for 2 hours at room temperature and then quenched with an H2SO4/malachite green dye solution. Immediately after addition of malachite green, sodium citrate was added as a colorimetric stablizer. Released inorganic phosphate was measured as an increase in absorbance (Abs630) from the complex of phosphate with malachite green (Chang, et al., 2008). Background control samples lacking Gα or RGS were used to determine the rate of non-enzymatic GTP hydrolysis.

Chain of RGS19 (P49795 whole entry, species assumed): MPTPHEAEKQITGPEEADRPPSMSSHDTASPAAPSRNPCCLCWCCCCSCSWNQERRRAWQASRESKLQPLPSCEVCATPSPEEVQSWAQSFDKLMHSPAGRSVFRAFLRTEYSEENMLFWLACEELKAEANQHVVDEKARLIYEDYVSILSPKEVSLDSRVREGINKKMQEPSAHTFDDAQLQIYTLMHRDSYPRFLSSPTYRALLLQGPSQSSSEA
Chain of RGS4 (P49798 whole entry, species assumed): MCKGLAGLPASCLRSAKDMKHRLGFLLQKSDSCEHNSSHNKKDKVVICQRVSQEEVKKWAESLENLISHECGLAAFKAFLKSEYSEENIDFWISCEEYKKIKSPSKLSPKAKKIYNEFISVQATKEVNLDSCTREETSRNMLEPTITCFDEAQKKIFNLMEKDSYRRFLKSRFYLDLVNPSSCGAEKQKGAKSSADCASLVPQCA

CCCCn1c(=O)sn(CC)c1=O [CCG-203769, 2-ethyl-4-butyl-1,2,4-thiadiazolidine-3,5-dione]
IC50 [1]: 0.14 µM
inhibition of RGS4 effect in steady-state GTPase assay [2]: potently inhibits the functional effect of RGS4
